In this assay the target is Protein kinase C (PKC). As to the kind of experiment: Inhibitory activity against protein kinase C (PKC). Type of assay: protein assay, Homo sapiens.

In general, IC50 refers to the concentration needed to halve the response being measured. High values mean weaker potency, low ones greater potency.

Each structure is given as a SMILES string.

Molecule `O=C1O[C@H]2[C@H](O)[C@@H](OC(=O)c3cc(O)c(O)c4c3C3C1=CC(=O)C(O)(O)C3(O)O4)[C@@H](OC(=O)c1cc(O)c(O)c(O)c1)O[C@@H]2CO` (stereo not given in full) registered an IC50 of 86 µM.

The molecule `Oc1cc(O)c2c(c1)O[C@H](c1ccc(O)c(O)c1)C(O)[C@H]2c1c(O)cc(O)c2c1O[C@H](c1ccc(O)c(O)c1)C(O)C2` (stereo not given in full) gave an IC50 greater than 100 µM.

`O=C(O[C@@H]1O[C@@H]2COC(=O)c3cc(O)c(O)c(O)c3-c3c(cc(O)c(O)c3O)C(=O)O[C@H]([C@H]1O)[C@@H]2O)c1cc(O)c(O)c(O)c1` [CORILAGIN]: the IC50 is 20 µM.

`O=C(O[C@@H]1C[C@](O)(C(=O)O)C[C@@H](OC(=O)c2cc(O)c(O)c(O)c2)[C@H]1OC(=O)c1cc(O)c(O)c(O)c1)c1cc(O)c(O)c(O)c1`: the IC50 is greater than 100 µM.

Molecule `O=C(OC[C@H]1O[C@@H](OC(=O)c2cc(O)c(O)c(O)c2)[C@H](OC(=O)c2cc(O)c(O)c(O)c2)[C@@H](O)[C@@H]1O)c1cc(O)c(O)c(O)c1` gave an IC50 greater than 100 µM.

For `O=C(OC[C@H]1O[C@H](OC(=O)c2cc(O)c(O)c(O)c2)[C@H](O)[C@@H](O)[C@@H]1OC(=O)c1cc(O)c(O)c(O)c1)c1cc(O)c(O)c(O)c1`, the IC50 is greater than 100 µM.

`Oc1cc(O)c2c(c1)O[C@@]1(c3ccc(O)c(O)c3)Oc3cc(O)c4c(c3C2[C@H]1O)O[C@H](c1ccc(O)c(O)c1)[C@H](O)C4` had an IC50 greater than 100 µM.

`O=C(O)C1=C[C@@H](O)[C@@H](O)[C@H](OC(=O)c2cc(O)c(O)c(O)c2)C1` gave an IC50 greater than 100 µM.

`CC1O[C@H](O)C2OC(=O)c3cc(O)c(O)c(O)c3-c3c(cc(O)c(O)c3O)C(=O)OC2C1O` (stereo not given in full) yielded an IC50 greater than 100 µM.

Consider `O=C(O)C1=C[C@@H](OC(=O)c2cc(O)c(O)c(O)c2)[C@@H](O)[C@H](OC(=O)c2cc(O)c(O)c(O)c2)C1`, for which the IC50 was greater than 100 µM.

As to `O=C(O)C[C@@H]1C(=O)O[C@H]2[C@@H]3OC(=O)c4cc(O)c(O)c(O)c4-c4c(cc(O)c(O)c4O)C(=O)OC[C@H]2O[C@@H](OC(=O)c2cc(O)c(O)c(O)c2)[C@@H]3OC(=O)c2cc(O)c(O)c3c2[C@H]1[C@H](O)C(=O)O3` [CHEBULAGIC ACID], the IC50 amounted to 30 µM.

For `O=C(O[C@H]1[C@H](O)C[C@](O)(C(=O)O)C[C@H]1O)c1cc(O)c(O)c(O)c1`, the IC50 was greater than 100 µM.

The molecule `O=C(O)C1=C[C@@H](O)[C@@H](O)[C@H](OC(=O)c2cc(O)c(O)c(OC(=O)c3cc(O)c(O)c(O)c3)c2)C1` came in with an IC50 greater than 100 µM.

As for `O=C(OC[C@H]1O[C@H](O)[C@@](O)(COC(=O)c2cc(O)c(O)c(O)c2)[C@@H]1OC(=O)c1cc(O)c(O)c(O)c1)c1cc(O)c(O)c(O)c1`, the IC50 was greater than 100 µM.

`O=C(OC[C@H]1OC(O)[C@@](O)(COC(=O)c2cc(O)c(O)c(O)c2)[C@@H]1O)c1cc(O)c(O)c(O)c1` (stereo not given in full) [HAMAMELITANNIN] registered an IC50 greater than 100 µM.

As for `Oc1cc(O)c2c(c1)O[C@H](c1ccc(O)c(O)c1)C(O)C2` (stereo not given in full), the IC50 was greater than 100 µM.

Take `O=C(OC[C@H]1O[C@@H](OC(=O)c2cc(O)c(O)c(O)c2)[C@H](O)[C@@H](O)[C@@H]1O)c1cc(O)c(O)c(O)c1`: the IC50 is greater than 100 µM.

As for `O=C1OC2COC(=O)c3cc(O)c(O)c(O)c3-c3c(O)c(O)c4oc(=O)c5c(c(O)c(O)c6oc(=O)c3c4c65)-c3c(cc(O)c(O)c3O)C(=O)OC2C2OC(=O)c3c(c(O)c(O)c(O)c3-c3c(O)c(O)c(O)c4c3C(=O)OC2[C@@H]4O)-c2c1cc(O)c(O)c2O` (stereo not given in full), the half-maximal inhibitory concentration (IC50) is 4 µM.

As for `O=C(O[C@@H]1O[C@H](CO)[C@@H](O)[C@H](O)[C@H]1O)c1cc(O)c(O)c(O)c1`, the IC50 is greater than 100 µM.

For `O=C(O)C[C@@H]1C(=O)O[C@H]2[C@H](OC(=O)c3cc(O)c(O)c(O)c3)[C@@H](OC(=O)c3cc(O)c(O)c4c3[C@H]1[C@H](O)C(=O)O4)[C@@H](OC(=O)c1cc(O)c(O)c(O)c1)O[C@@H]2COC(=O)c1cc(O)c(O)c(O)c1`, the IC50 was 30 µM.

For the origin of these results see ChEMBL document CHEMBL1149998, “Tannins as selective inhibitors of protein kinase C” (Bioorg Med Chem Lett, 1992).
